{"source": "patent US20200281897A1", "about": "“INDAZOLE DERIVATIVES FOR CANCER TREATMENT” (Servicio Andaluz de Salud, priority 2016, published 2020)", "key": {"U266 [1]": {"test_system": "U266", "assay": "MTT cell viability assay, myeloma cell line U266", "type": "cell-based, human", "conditions": "U266, MTT, 18 hours, doses 0-50 μM; read-out: IC50, cell viability", "procedure": "(§1) In vitro studies were carried out using six different human MM cell lines, U266, RPMI8226, MM1S, MM1R, U266-LR7, and RPMI-LR5. For ex vivo assays, human primary cells from healthy donors and MM patients were used (Table 1). Human MM cell lines U266, RPMI8226, and MM1.S were acquired from ATCC and lines U266-LR7, RPMI-LR5, and MM1.R were kindly provided by Dr. Enrique Ocio (Hospital Universitario de Salamanca, Spain). The primary cells were obtained from bone marrow (BM) aspirates or peripheral blood (PB) samples, and the peripheral blood mononuclear cells (PBMCs) were isolated by Ficoll-Hypaque centrifugation and washed twice in phosphate buffered saline (PBS) containing 1% BSA. Hematopoietic stem cells and B and T lymphocytes were isolated from healthy PB donors by positive immunomagnetic separation using human MACS CD34+, CD19+, and CD3+ microbeads, respectively. MM plasma cells were obtained from the bone marrow (BM) of patients with an infiltration of cells of more than 30% (Table 1). The MM plasma cells were identified using CD138+, and were then distinguished from the other cell populations by flow cytometry using a suitable combination of antibodies: anti-human CD64-FITC, CD34-PE, CD56-APC, CD38-APC-H7, and CD45-Pacific Blue antibodies (BD Biosciences, San Jose, Calif.). All the cell lines were cultured in RPMI-1640 supplemented with 10% fetal bovine serum (FBS) and 1% penicillin/streptomycin, as recommended by the supplier. For human primary cells, the concentration of FBS was up to 20%.\n(§2) The MM cell lines and primary cells were exposed to different doses of indazole compounds, and viability was evaluated at 18, 48, and 72 hours. Pretreatments with the ceramide synthesis inhibitor (FB1), pan-caspase (ZVAD-FMK), and CB antagonists (PGN-8, PGN-37, and PGN-70) were performed for 30 minutes, and then the cells were incubated with indazole compound WIN-55 up to 18 hours. Cell viability was determined using the MTT assay Cell Counting Kit-8 (Dojindo, Kumamoto, Japan) according to the manufacturer's instructions."}, "MM1S": {"test_system": "MM1S", "assay": "MTT cell viability assay, myeloma cell line MM1S", "type": "cell-based, human", "conditions": "MM1S, MTT, 18 hours, doses 0-50 μM; read-out: IC50, cell viability", "procedure": "as §1, §2"}, "HL60 cells": {"test_system": "HL60 cells", "assay": "Murine model of AML (HL60 in NSG mice)", "type": "in vivo", "conditions": "5 mg/kg/day", "source_text": "The NOD/scid/IL-2R gammae null (NSG) mice were acquired from Charles River Laboratories International (L'Arbresle, France) and received food and water ad libitum, under specific pathogen-free conditions. When the mice were 8-12 weeks old, AML was induced by intravenous inoculation of the HL60 cell line, and the mice were monitored to confirm progression of the disease by means of studying weight loss and detecting human CD45+ cells in bone marrow BM aspirates and flow cytometry analysis. Once the presence of leukemia cells was confirmed, treatment with a vehicle, WIN-55 212 cannabinoid was administered at a dose of 5 mg/kg/day or cytarabine (ARA-C) at 50 mg/kg for 5 days."}, "U266-LR7": {"test_system": "U266-LR7", "assay": "MTT cell viability assay, myeloma cell line U266-LR7", "type": "cell-based, human", "conditions": "U266-LR7, MTT, 18 hours, doses 0-50 μM; read-out: IC50, cell viability", "procedure": "as §1, §2"}, "U266 [2]": {"test_system": "U266", "assay": "Cell viability by flow cytometry (annexin V/7-AAD), U266", "type": "cell-based, human", "conditions": "U266, 18 hours", "procedure": "The cell viability of the MM cell lines and primary cells from healthy PB donors was also evaluated by flow cytometry using 7-AAD/Annexin V. Patient bone marrow (BM) cells were analyzed using 7-AAD with a combination of monoclonal antibodies against myeloma-associated antigens (anti-CD56-APC, anti-CD45-Pacific Blue, and anti-CD38-APC-H7 [BD Biosciences]) and antibodies for distinguishing the granulomonocytic population (anti-CD64-FITC) and lymphocytic population (anti-CD45-Pacific Blue). The cells were acquired by means of FACSCanto II flow cytometer (BD Biosciences) and analyzed using Infinicyt™ Software (Cytognos, Spain)."}, "HL60": {"test_system": "HL60", "assay": "Mitochondrial damage and ER stress in HL60 cells", "type": "cell-based, human", "conditions": "HL60, 50 μM, 15 and 30 minutes", "procedure": "The controls that are untreated and the cells (10^6 cells per assay) treated with WIN-55,212-2 (50 μM) for 15 and 30 minutes at 37° C. were stained with 5 μM MitoSOX probe [Molecular Probes (Invitrogen)] to detect the mitochondrial superoxide. The MitoSOX signal was detected by flow cytometry.\nThe detailed methodology for analyzing mitochondrial membrane potential (APm), Western Blot analysis, and immunocytofluorescence analysis has been described elsewhere 29"}, "KG-1": {"test_system": "KG-1", "assay": "WST-1 cell viability assay, KG-1", "type": "cell-based, human", "conditions": "KG-1, 18 hours", "procedure": "U937, NB-4, KG-1, and MOLM-13 (DMSZ, Braunschweig, Germany) were cultured in complete RPMI 1640 medium (with 2 mM of L-glutamine, 100 mg of penicillin, 100 μg/ml of streptomycin, and with 10% FBS), supplemented with 10 mM HEPES, 1×NaPuvuvato, and 1× non-essential amino acids.\nThe cell lines and primary cells were cultured in 96-well plates (5×10e5 cells per well) with the addition of the indicated concentrations of WIN 55,212-2 or PGN cannabinoids in DMSO or with the solvent only in triplicate at 18, 48, and 72 hours. Caspase inhibitor Z-VAD (OMe)-FMK or the CB2 receptor antagonist PGN-8, -37, and -70, together with the cannabinoid WIN-55,212-2, were also added. Cell viability was determined by means of the WST-1 assay [2-(4-iodophenyl)-3-(4-nitrophenyl)-5-(2,4-disulfophenyl)-2H-tetrazolium] according to the manufacturer's instructions (Dojindo Molecular Technologies). Optical densities were measured at 450 nm using a Multiskan™ Go Microplate plate reader (Thermo Fisher Scientific, Waltham, Mass., USA).\nNow it will be analyzed whether the exposure to cannabinoids had any effect on the viability of the tumor cells in vitro. […]"}, "[3]": {"test_system": "hematopoietic progenitor populations", "assay": "Effect on normal hematopoiesis in healthy BALB/c mice", "type": "in vivo", "conditions": "5 mg/kg/day for 7 and 28 days", "procedure": "The effect of the cannabinoid on normal hematopoiesis was also tested by means of the treatment of healthy BALB/c mice with WIN-55,212-2 at a dose of 5 mg/kg/day for 7 and 28 days. The bone marrow and the peripheral blood population were analyzed by means of flow cytometry and blood counts."}, "myeloma cell lines": {"test_system": "myeloma cell lines", "assay": "MTT cell viability assay, average over all myeloma cell lines", "type": "cell-based, human", "conditions": "average over the six myeloma cell lines, MTT, 18 hours; read-out: IC50 average", "procedure": "as §1, §2"}}}
{"compound": "CS(=O)(=O)O.Cc1c(C(=O)c2cccc3ccccc23)c2cccc3c2n1[C@H](CN1CCOCC1)CO3", "note": "[WIN-55, (R)-(+)-[2,3-dihydro-5-methyl-3-(4-morpholinomethyl)-pyrrolo[1,2,3]-1,4-benzoxazin-6-yl]-1-naphthalenylmethanone mesylate]", "values": [{"measurement": "IC50", "setting": "U266 [1]", "result": 17.2, "unit": "µM"}, {"measurement": "IC50", "setting": "MM1S", "result": 13.6, "unit": "µM"}, {"measurement": "number of HL60 cells in bone marrow", "setting": "HL60 cells", "result": "vast reduction"}, {"measurement": "survival", "setting": "HL60 cells; versus control group and ARA-C group", "result": "significant increase in survival"}, {"measurement": "IC50", "setting": "U266-LR7", "result": 17.2, "unit": "µM"}, {"measurement": "IC50", "setting": "U266 [2]", "result": 18.5, "unit": "µM"}, {"measurement": "mitochondrial damage and ER stress", "setting": "HL60", "result": "early mitochondrial damage and ER stress"}, {"measurement": "% viable cells at 50 μM", "setting": "KG-1", "result": 57.4, "unit": "%"}, {"measurement": "IC50", "setting": "KG-1", "result": 33.2, "unit": "µM"}, {"measurement": "viability of hematopoietic progenitor populations", "setting": "[3]", "result": "do not affect the viability"}, {"measurement": "IC50", "setting": "myeloma cell lines", "result": 14.6, "unit": "µM"}]}
